Consider 20 compounds from PMC2673050 (Journal of medicinal chemistry, 2009).

Usually IC50 stands for the midpoint of a concentration-inhibition curve. Higher therefore signals weaker potency in that assay.

A short description of data set [1]: Cytotoxicity testing. It counts as cell-based. Conditions: human, MCF7 breast cells.
Data set [2] can be described thus: Cytotoxicity testing. It counts as cell-based. Conditions: human, LU lung cancer cells.
The target of a further data set is T1, aromatase (CYP19A1) (Homo sapiens, UniProt P11511).
T1 sequence (P11511 1-503): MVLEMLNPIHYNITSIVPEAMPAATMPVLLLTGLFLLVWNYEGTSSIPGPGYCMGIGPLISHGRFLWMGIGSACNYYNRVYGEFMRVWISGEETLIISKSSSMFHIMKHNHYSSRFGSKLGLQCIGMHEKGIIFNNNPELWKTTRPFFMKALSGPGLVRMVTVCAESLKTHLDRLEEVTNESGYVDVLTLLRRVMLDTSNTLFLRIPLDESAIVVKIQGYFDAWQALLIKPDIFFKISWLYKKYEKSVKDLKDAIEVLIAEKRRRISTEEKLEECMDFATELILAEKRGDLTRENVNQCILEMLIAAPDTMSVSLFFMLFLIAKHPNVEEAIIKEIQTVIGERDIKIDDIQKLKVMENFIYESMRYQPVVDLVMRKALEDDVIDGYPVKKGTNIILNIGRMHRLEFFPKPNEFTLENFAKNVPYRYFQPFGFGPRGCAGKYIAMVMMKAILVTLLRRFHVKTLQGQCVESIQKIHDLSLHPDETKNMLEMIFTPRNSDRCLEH
In words: Aromatase inhibition assay. It counts as biochemical.

A further data set concerns the target T2, Human QR2 (Homo sapiens, UniProt P16083).
T2 sequence (P16083 1-231): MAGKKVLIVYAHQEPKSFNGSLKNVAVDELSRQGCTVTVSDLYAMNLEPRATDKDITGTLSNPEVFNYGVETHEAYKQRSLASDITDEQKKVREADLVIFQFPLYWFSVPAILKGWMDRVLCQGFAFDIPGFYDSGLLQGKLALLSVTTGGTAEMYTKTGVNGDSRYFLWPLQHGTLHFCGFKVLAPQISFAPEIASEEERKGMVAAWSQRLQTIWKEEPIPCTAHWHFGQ
In words: QR2 inhibition assay. It counts as biochemical. Conditions: for Increase in QR2 inhibitory potency relative to compound 1: relative to natural product 1.

Data set [3] deals with Salmonella typhimurium strain TM677. Conditions: S. typhimurium TM677; cited from earlier work.
Data set [4] deals with mouse mammary gland organ culture (MMOC). Conditions: cited from earlier work.
Data set [5] relates to four different cell lines. In words: Cytotoxicity, overall statement for four cell lines. It is filed as cell-based.

SMILES strings stand for the structures.

For `COc1ccc2c(C)cc(=O)[nH]c2c1OC` [1g, 7,8-Dimethoxy-4-methylquinolin-2(1H)-one], the IC50 at 72 h in “Cytotoxicity testing [1]” and in the data set “Cytotoxicity testing [2]” was greater than 91.3 µM in each case.

Regarding `COc1cc(OC)c2c(c1)c(C)cc(=O)n2C` [1j, 6,8-Dimethoxy-1,4-dimethylquinolin-2(1H)-one], the half-maximal inhibitory concentration (IC50) at 72 h in the data set “Cytotoxicity testing [1]” and in “Cytotoxicity testing [2]” was greater than 85.8 µM each time. On aromatase (CYP19A1), the “Aromatase inhibitory activity (in words)” value is recorded as “submicromolar range”.

For the compound `COc1c(OC)c(OC)c2c(C)cc(=O)[nH]c2c1OC` [1q, 5,6,7,8-Tetramethoxy-4-methylquinolin-2(1H)-one], the IC50 at 72 h in “Cytotoxicity testing [1]” and in “Cytotoxicity testing [2]” was greater than 71.7 µM throughout. The “QR2 inhibitory activity (in words)” value at Human QR2 is “completely inactive”.

Regarding `COc1ccc2c(C)cc(=O)n(C)c2c1OC` [1h, 7,8-Dimethoxy-1,4-dimethylquinolin-2(1H)-one], the IC50 at 72 h in the data set “Cytotoxicity testing [1]” and in the data set “Cytotoxicity testing [2]” was greater than 85.8 µM in each case.

Regarding `COc1cccc2c(C)cc(=O)n(C)c12` [1f, 8-Methoxy-1,4-dimethylquinolin-2(1H)-one], the IC50 at 72 h in “Cytotoxicity testing [1]” and in the data set “Cytotoxicity testing [2]” was greater than 98.5 µM in each case. Moreover, on Human QR2, the “Increase in QR2 inhibitory potency relative to compound 1” value is reported as “approximately 10 fold”.

Take `COc1cccc2c(C)cc(=O)[nH]c12` [1e, 8-Methoxy-4-methylquinolin-2(1H)-one]: the IC50 at 72 h in “Cytotoxicity testing [1]” and in the data set “Cytotoxicity testing [2]” was greater than 106 µM each time. For the same compound, the “Aromatase inhibitory activity (in words)” value at aromatase (CYP19A1) was “not active”.

As for `Cc1cc(=O)n(C)c2ccccc12` [1d, 1,4-Dimethylquinolin-2(1H)-one], the half-maximal inhibitory concentration (IC50) at 72 h in “Cytotoxicity testing [1]” and in “Cytotoxicity testing [2]” was greater than 116 µM in each case. Also, the “Increase in QR2 inhibitory potency relative to compound 1” value at Human QR2 was “approximately 3 fold”. On aromatase (CYP19A1), the “Aromatase inhibitory activity (in words)” value was “inactive”.

For the compound `COc1cc(=O)n(C)c2c3c(ccc12)OCO3` [compound 1, 6-Methoxy-9-methyl-[1,3]dioxolo[4,5-h]quinolin-8(9H)-one], the “Inhibition of mutagenicity induced by 7,12-dimethylbenz[a]anthracene (DMBA)” value in data set [3] was “inhibit mutagenicity”. In addition, in data set [4], the “Inhibition of formation of DMBA-induced preneoplastic lesions” value is given as “inhibition of the formation of DMBA-induced preneoplastic lesions”. Moreover, the IC50 at 72 h in the data set “Cytotoxicity testing [1]” and in the data set “Cytotoxicity testing [2]” was greater than 85.8 µM in each case.

With `COc1cc2c(C)cc(=O)n(C)c2c(OC)c1OC` [1n, 6,7,8-Trimethoxy-1,4-dimethylquinolin-2(1H)-one], the IC50 at 72 h in the data set “Cytotoxicity testing [1]” and in “Cytotoxicity testing [2]” was greater than 76 µM throughout.

Take `COc1cc(OC)c2[nH]c(=O)cc(C)c2c1OC` [1o, 5,6,8-Trimethoxy-4-methylquinolin-2(1H)-one]: in data set [5], the “Cytotoxicity (in words)” value is reported as “low degree of cytotoxicity”.

For the compound `Cc1cc(=O)[nH]c2c3c(ccc12)OCO3` [1a, 6-Methyl-[1,3]dioxolo[4,5-h]quinolin-8(9H)-one], the IC50 at 72 h in “Cytotoxicity testing [1]” and in the data set “Cytotoxicity testing [2]” was greater than 98.5 µM in each case.

On to `Cc1cc(=O)[nH]c2ccccc12` [1c, 4-Methylquinolin-2(1H)-one], for which the IC50 at 72 h in “Cytotoxicity testing [1]” and in the data set “Cytotoxicity testing [2]” was greater than 126 µM in each case. Moreover, the “QR2 inhibitory activity (in words)” value on Human QR2 was “inactive”. Moreover, the “Aromatase inhibitory activity (in words)” value on aromatase (CYP19A1) is “inactive”.

Take `COc1cc(OC)c2[nH]c(=O)cc(C)c2c1` [1i, 6,8-Dimethoxy-4-methylquinolin-2(1H)-one]: the IC50 at 72 h in the data set “Cytotoxicity testing [1]” and in the data set “Cytotoxicity testing [2]” was greater than 91.3 µM each time. Also, the “Aromatase inhibitory activity (in words)” value at aromatase (CYP19A1) was “inactive”.

As for `Cc1cc(=O)n(C)c2c1C(=O)C=CC2=O` [compound 12], in data set [5], the “Cytotoxicity (in words)” value is given as “low degree of cytotoxicity”.

In the case of `Cc1cc(=O)n(C)c2c3c(ccc12)OCO3` [1b, 6,9-Dimethyl-[1,3]dioxolo[4,5-h]quinolin-8(9H)-one], the IC50 at 72 h in the data set “Cytotoxicity testing [1]” and in “Cytotoxicity testing [2]” was greater than 92.1 µM throughout. Moreover, the “Increase in QR2 inhibitory potency relative to compound 1” value on Human QR2 was “more than 8 fold”.

`COc1cc(OC)c2c(c(C)cc(=O)n2C)c1OC` [1p, 5,6,8-Trimethoxy-1,4-dimethylquinolin-2(1H)-one]: in data set [5], the “Cytotoxicity (in words)” value is reported as “low degree of cytotoxicity”. The compound also displayed an IC50 at 72 h in “Cytotoxicity testing [1]” greater than 76 µM.

Consider `COc1cc2c(C)cc(=O)[nH]c2c(OC)c1OC` [1m, 6,7,8-Trimethoxy-4-methylquinolin-2(1H)-one], for which the IC50 at 72 h in “Cytotoxicity testing [1]” and in “Cytotoxicity testing [2]” was greater than 80.3 µM throughout.

As to `COc1ccc(OC)c2c1c(C)cc(=O)n2C` [1l, 5,8-Dimethoxy-1,4-dimethylquinolin-2(1H)-one], the IC50 at 72 h in “Cytotoxicity testing [1]” and in the data set “Cytotoxicity testing [2]” was greater than 85.7 µM in each case. At Human QR2, the “Increase in QR2 inhibitory potency relative to compound 1” value is reported as 10 fold. For the same compound, on aromatase (CYP19A1), the “Aromatase inhibitory activity (in words)” value is given as “submicromolar range”.

`COc1c(OC)c(OC)c2c(c(C)cc(=O)n2C)c1OC` [1r, 5,6,7,8-Tetramethoxy-1,4-dimethylquinolin-2(1H)-one]: the half-inhibitory concentration (IC50) at 72 h in “Cytotoxicity testing [1]” and in the data set “Cytotoxicity testing [2]” was greater than 68.2 µM throughout. The “QR2 inhibitory activity (in words)” value on Human QR2 was “completely inactive”. The “Aromatase inhibitory activity (in words)” value at aromatase (CYP19A1) is reported as “submicromolar range”.

With `COc1ccc(OC)c2c(C)cc(=O)[nH]c12` [1k, 5,8-Dimethoxy-4-methylquinolin-2(1H)-one], the IC50 at 72 h in the data set “Cytotoxicity testing [1]” and in the data set “Cytotoxicity testing [2]” was greater than 91.2 µM each time.
